Here are results for nine compounds from PubChem BioAssay (NCI).

Molecules are shown by their SMILES. Several values for one entry are separate records, joined by “and”; a condition that tells them apart may be missing. Identical values can stand only once.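 Protocol summary: plate cells (96-well), add compound at 5 concentrations, incubate 48 h, interpolate endpoints linearly. GI50 is the concentration that inhibits growth by half. TGI: concentration producing complete growth inhibition.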

Among the test systems are COLO 205 colon; HCC-2998 colon; MDA-MB-231 breast; IGROV1 ovarian; NCI-H522 lung; TK-10 renal; SF-295 CNS; U251 CNS; SK-OV-3 ovarian; MDA-MB-435.
What all share (assay): NCI-60 cell line screen, 48 h

Turning to `FC(F)(F)c1ccc(NCc2nc3ccccc3[nH]2)cc1`, the GI50 was 19.2 µM with COLO 205 colon; 23.8 µM with HCC-2998 colon; 22.8 µM with MDA-MB-231 breast; 39.9 µM in the test on IGROV1 ovarian; 24.7 µM with NCI-H522 lung; 38.2 µM in the test on TK-10 renal. In addition, the GI50 with SF-295 CNS is 18.7 µM; in the test with U251 CNS, 27.5 µM; in the test with SK-OV-3 ovarian, 45.5 µM; with MDA-MB-435, 22.4 µM. Further, the TGI with COLO 205 colon is 34.3 µM; in the test on HCC-2998 colon, 73.5 µM; in the test with MDA-MB-231 breast, 78.2 µM; in the test with IGROV1 ovarian it was over 100 µM; in the test with NCI-H522 lung, 95.3 µM; in the test with TK-10 renal, over 100 µM. Further, the TGI is 65.8 µM in the test with SF-295 CNS, over 100 µM in the test with U251 CNS, over 100 µM in the test on SK-OV-3 ovarian and 74.6 µM in the test with MDA-MB-435.
Take `O=C(c1ccco1)c1c(C(F)(F)F)n([O-])c2ccc(F)cc2[n+]1=O`: the GI50 was 0.524 µM in the test on COLO 205 colon; 0.775 µM in the test with HCC-2998 colon; 1.61 µM with MDA-MB-231 breast; 1.23 µM in the test with IGROV1 ovarian; 1.7 µM in the test with NCI-H522 lung; 1.42 µM in the test on TK-10 renal. The GI50 was 4.69 µM in the test with SF-295 CNS, 1.33 µM in the test on U251 CNS, 6.02 µM in the test on SK-OV-3 ovarian and 1.3 µM in the test with MDA-MB-435. For the same compound, the TGI in the test with COLO 205 colon turned out to be 1.36 µM; in the test with HCC-2998 colon, 2.02 µM; in the test on MDA-MB-231 breast it was 3.44 µM; in the test on IGROV1 ovarian, 2.78 µM; in the test with NCI-H522 lung, 3.44 µM; in the test on TK-10 renal, 3.36 µM. Moreover, the TGI is 17.9 µM in the test with SF-295 CNS, 2.6 µM in the test with U251 CNS, 18.6 µM in the test on SK-OV-3 ovarian and 2.75 µM with MDA-MB-435.
As to `COc1cc(/C=C/c2ccccn2)cc(OC)c1OC`, the TGI in the test on COLO 205 colon, with HCC-2998 colon, with MDA-MB-231 breast, in the test with IGROV1 ovarian, in the test with NCI-H522 lung and in the test with TK-10 renal was over 10 µM in each case. In addition, the TGI in the test on SF-295 CNS, with U251 CNS, in the test on SK-OV-3 ovarian and in the test on MDA-MB-435 was over 10 µM each time.
Regarding `Cc1cc(C#Cc2ccccc2)ccc1-n1c(/C=C/c2cc(O)ccc2O)nc2ccccc2c1=O`, the GI50 in the test on COLO 205 colon is 1.48 µM; in the test with HCC-2998 colon it was 1.36 µM; in the test with MDA-MB-231 breast it was 1.56 µM; with IGROV1 ovarian, 2.45 µM; in the test on NCI-H522 lung it was 1.29 µM; in the test with TK-10 renal it was 2.03 µM. The GI50 was 1.35 µM in the test on SF-295 CNS, 1.45 µM in the test with U251 CNS, 1.83 µM with SK-OV-3 ovarian and 1.67 µM in the test with MDA-MB-435. The TGI in the test with COLO 205 colon was found to be 2.8 µM; in the test on HCC-2998 colon it was 2.64 µM; in the test with MDA-MB-231 breast it was 3.16 µM; with IGROV1 ovarian it was 8 µM; in the test with NCI-H522 lung, 2.56 µM; in the test with TK-10 renal it was 5.61 µM. In addition, the TGI in the test on SF-295 CNS stood at 3.82 µM; in the test on U251 CNS it was 2.77 µM; with SK-OV-3 ovarian, 4.61 µM; with MDA-MB-435, 3.53 µM.
For `COc1cccc(/C=C\c2ccnc3ccccc23)c1`, the TGI in the test with COLO 205 colon, with HCC-2998 colon, in the test on MDA-MB-231 breast, in the test on IGROV1 ovarian, with NCI-H522 lung and with TK-10 renal was over 10 µM throughout. The TGI in the test on SF-295 CNS, in the test on U251 CNS, with SK-OV-3 ovarian and in the test on MDA-MB-435 was over 10 µM each time.
`Nc1ccc(C(=O)Nc2ccccc2N)cc1`: the TGI with COLO 205 colon was 45.2 µM; in the test on HCC-2998 colon it was over 100 µM; in the test with MDA-MB-231 breast, over 100 µM; with IGROV1 ovarian, over 100 µM; with NCI-H522 lung, 47.2 µM; in the test with TK-10 renal, over 63.1 µM. Further, the TGI in the test on SF-295 CNS was over 100 µM; in the test with U251 CNS, 59.8 µM; in the test with SK-OV-3 ovarian, over 100 µM; in the test on MDA-MB-435 it was over 100 µM.
For the compound `CC(C)[C@H](C(=O)O[C@@H]1/C=C/C(=O)O[C@@H](C)CCC/C=C/[C@@H]2C[C@H](O)C[C@H]21)N(C)C`, the GI50 is 3.49 µM in the test with COLO 205 colon; 12.9 µM with HCC-2998 colon; 12.8 µM with MDA-MB-231 breast; 22.8 µM in the test on IGROV1 ovarian; 26.5 µM with NCI-H522 lung; 14.7 µM in the test with TK-10 renal. Besides, the GI50 in the test with SF-295 CNS was 4.85 µM; with U251 CNS, 20.3 µM; with SK-OV-3 ovarian, 17.9 µM; with MDA-MB-435 it was 5.84 µM. The TGI is 9.67 µM with COLO 205 colon; 62.2 µM in the test with HCC-2998 colon; 51.9 µM in the test with MDA-MB-231 breast; over 71.3 µM with IGROV1 ovarian; over 68.8 µM with NCI-H522 lung; 60.8 µM with TK-10 renal. The TGI in the test on SF-295 CNS was 25.1 µM; in the test on U251 CNS it was over 100 µM; with SK-OV-3 ovarian, over 96.7 µM; in the test with MDA-MB-435, over 55.8 µM.
As for `CC1COCCN1CC#CCOC(=O)c1cc2ccccc2oc1=O` (stereo not drawn), the GI50 in the test on COLO 205 colon, in the test with HCC-2998 colon, in the test on MDA-MB-231 breast, with IGROV1 ovarian, in the test with NCI-H522 lung and with TK-10 renal was over 100 µM throughout. In addition, the GI50 in the test with SF-295 CNS, in the test on U251 CNS, with SK-OV-3 ovarian and in the test with MDA-MB-435 was over 100 µM each time. The TGI in the test on COLO 205 colon, in the test on HCC-2998 colon, in the test with MDA-MB-231 breast, with IGROV1 ovarian, in the test on NCI-H522 lung and in the test with TK-10 renal was over 100 µM in each case. Moreover, the TGI with SF-295 CNS, in the test with U251 CNS, with SK-OV-3 ovarian and in the test with MDA-MB-435 was over 100 µM throughout.
For the compound `CCN(CCO)CCCOc1ccc2c(Nc3cc(CC(=O)Nc4cccc(F)c4)[nH]n3)ncnc2c1`, the GI50 was 0.034 µM and 0.0244 µM in the test on COLO 205 colon; 20.8 µM with HCC-2998 colon; 19.2 µM in the test on MDA-MB-231 breast; 26.1 µM with IGROV1 ovarian; over 67.8 µM in the test with TK-10 renal; 13.7 µM in the test on U251 CNS. Further, the GI50 in the test with SK-OV-3 ovarian is 15.6 µM; in the test with MDA-MB-435, 14.1 µM. Further, the TGI is 1.22 µM with COLO 205 colon; 61.9 µM and > 3.75 µM with HCC-2998 colon; over 51.5 µM in the test with MDA-MB-231 breast; over 93.1 µM in the test with IGROV1 ovarian; 37.2 µM and > 4.22 µM with NCI-H522 lung; over 100 µM in the test with TK-10 renal. Moreover, the TGI with SF-295 CNS is over 100 µM; in the test on U251 CNS it was 29.4 µM and > 10 µM; in the test on SK-OV-3 ovarian, over 57.1 µM; in the test with MDA-MB-435, 34 µM.
